Reference: ChEMBL document CHEMBL1132668, “The design of potent and selective inhibitors of thrombin utilizing a piperazinedione template: part 1” (Bioorg Med Chem Lett, 1999)

Assays:
[1] = target: T1, Serine protease 1 (Homo sapiens, UniProt P07477); test: Inhibitory activity against human trypsin
[2] = target: T2, Prothrombin (Homo sapiens, UniProt P00734); test: Binding affinity against thrombin
[3] = target: T2, Prothrombin; test: Inhibitory activity against human thrombin
[4] = target: T1, Serine protease 1; test: Tested for the inhibition of trypsin at a concentration of 100 uM
[5] = target: T1, Serine protease 1; test: Compound was tested for the binding affinity against trypsin

T1 sequence (P07477 whole entry): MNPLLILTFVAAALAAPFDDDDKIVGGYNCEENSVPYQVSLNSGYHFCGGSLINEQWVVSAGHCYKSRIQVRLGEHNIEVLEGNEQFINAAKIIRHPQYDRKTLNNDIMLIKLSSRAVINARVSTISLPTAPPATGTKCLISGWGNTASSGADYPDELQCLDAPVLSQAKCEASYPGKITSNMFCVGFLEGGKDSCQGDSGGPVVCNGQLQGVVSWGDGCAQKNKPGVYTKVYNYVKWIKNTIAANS

| SMILES | IC50 [1] [nM] | Ki [2] [nM] | IC50 [3] [nM] | inhibition [4] [%] | Ki [5] [nM] |
| --- | --- | --- | --- | --- | --- |
| N=C(N)N1CCCC(C[C@H](NC(=O)CN2C(=O)CN(CCCc3ccccc3)C(=O)[C@@H]2Cc2ccc(Cl)cc2)C(=O)c2nccs2)C1 (stereo partly specified) | 33400 | 40 | 170 |  |  |
| N=C(N)N1CCC[C@@H](C[C@H](NC(=O)CN2C(=O)CN(CCCc3ccccc3)C(=O)[C@@H]2Cc2ccccc2)C(=O)c2nccs2)C1 |  | 24 | 240 | 80 |  |
| N=C(N)N1CCCC(C[C@H](NC(=O)CN2CC(=O)N(CCCc3ccccc3)CC2=O)C(=O)c2nccs2)C1 (stereo partly specified) | 91200 | 495 | 4700 |  |  |
| CC(C)C[C@H]1C(=O)N(CCCc2ccccc2)CC(=O)N1CC(=O)N[C@@H](CC1CCCN(C(=N)N)C1)C(=O)c1nccs1 (stereo partly specified) |  | 165 | 4300 | 69 |  |
| N=C(N)N1CCCC(C[C@H](NC(=O)CN2C(=O)CN(CCCc3ccccc3)C(=O)[C@@H]2Cc2cccnc2)C(=O)c2nccs2)C1 (stereo partly specified) |  |  | 1000 | 40 |  |
| N=C(N)N1CCCC(C[C@H](NC(=O)CN2C(=O)CN(CCCc3ccccc3)C(=O)[C@@H]2CC2CCCCC2)C(=O)c2nccs2)C1 (stereo partly specified) | 18500 | 75 | 430 |  |  |
| CCCC[C@H]1C(=O)N(CCCc2ccccc2)CC(=O)N1CC(=O)N[C@@H](CC1CCCN(C(=N)N)C1)C(=O)c1nccs1 (stereo partly specified) | 42700 | 98 | 1600 |  |  |
| N=C(N)NCCC[C@H](NC(=O)CN1C(=O)CN(CCCc2ccccc2)C(=O)[C@@H]1Cc1ccccc1)C(=O)c1nccs1 | 90 |  | 130 |  |  |
| CCC(C)[C@H]1C(=O)N(CCCc2ccccc2)CC(=O)N1CC(=O)N[C@@H](CC1CCCN(C(=N)N)C1)C(=O)c1nccs1 (stereo partly specified) |  | 200 | 3400 | 67 |  |
| N=C(N)N1CCCC(C[C@H](NC(=O)CN2C(=O)CN(CCCc3ccccc3)C(=O)[C@@H]2CCc2ccccc2)C(=O)c2nccs2)C1 (stereo partly specified) | 29000 | 105 | 590 |  |  |
| CN1CC(=O)N(CC(=O)N[C@@H](CC2CCCN(C(=N)N)C2)C(=O)c2nccs2)[C@@H](Cc2ccc3ccccc3c2)C1=O (stereo partly specified) | 26600 | 140 | 1270 |  |  |
| C[C@H]1C(=O)N(CCCc2ccccc2)CC(=O)N1CC(=O)N[C@@H](C[C@@H]1CCCN(C(=N)N)C1)C(=O)c1nccs1 | 24000 | 65 | 760 |  |  |
| N=C(N)N1CCCC(C[C@H](NC(=O)CN2C(=O)CN(Cc3ccccc3)C(=O)[C@@H]2Cc2ccc3ccccc3c2)C(=O)c2nccs2)C1 (stereo partly specified) | 11100 |  |  |  |  |
| N=C(N)N1CCCC(C[C@H](NC(=O)CN2C(=O)CN(CCCc3ccccc3)C(=O)[C@@H]2Cc2ccc3ccccc3c2)C(=O)c2nccs2)C1 (stereo partly specified) | 27000 | 30 | 45 |  | 13.5 |
| N=C(N)N1CCCC(C[C@H](NC(=O)CN2C(=O)CN(CCCc3ccccc3)C(=O)C2C(c2ccccc2)c2ccccc2)C(=O)c2nccs2)C1 (stereo partly specified) | 9700 |  | 750 |  |  |
| CC(C)[C@H]1C(=O)N(CCCc2ccccc2)CC(=O)N1CC(=O)N[C@@H](CC1CCCN(C(=N)N)C1)C(=O)c1nccs1 (stereo partly specified) | 74800 |  | 1800 |  |  |
| COc1ccc(C[C@H]2C(=O)N(CCCc3ccccc3)CC(=O)N2CC(=O)N[C@@H](CC2CCCN(C(=N)N)C2)C(=O)c2nccs2)cc1 (stereo partly specified) | 3800 | 43 | 350 |  |  |
